Experimental data published in patent US11696917B2, “Agent enhancing antitumor effect using pyrazolo[3,4-d]pyrimidine compound” (TAIHO PHARMACEUTICAL CO., LTD., priority 2017, dated 2023).

Assays:
[1] = test system: human stomach cancer cell line NCI-N87; assay: Combination of Compound 1 and capecitabine (in vivo), subcutaneous tumor in nude mice; design: species or system nude mouse (BALB/cAJcl-nu/nu); conditions: for T/C (%): Day 15
Method: A human stomach cancer cell line NCI-N87 was obtained from American Type Culture Collection (ATCC). The cell line was cultured at 37° C. in a 5% CO2 incubator using RPMI-1640 (containing 4.5 g/L glucose, 10 mM HEPES, and 1 mM sodium pyruvate) (Wako Pure Chemical Industries, Ltd.) medium containing 10% fetal bovine serum (FBS).
The NCI-N87 cells were resuspended at a concentration of 8×10^7 cells/mL in PBS.
The cell suspension was subcutaneously transplanted in an amount of 8×10^6 cells/0.1 mL to the right chest of a 6-week-old nude mouse (BALB/cAJcl-nu/nu, CLEA Japan, Inc.) using a 1 mL syringe for tuberculin and a 25 G injection needle.
Electronic calipers were used in tumor size measurement.

[2] = test system: Human stomach cancer cells 4-1st; assay: Combination of Compound 1 and trastuzumab (in vivo), subcutaneous tumor in nude mice; design: species or system nude mouse (BALB/cAJcl-nu/nu); conditions: for T/C (%): Day 15; for BWC (%) Day 15 Mean: mouse, in vivo, po
Source text: Human stomach cancer cells 4-1st were obtained as fragment tumor from the Central Institute for Experimental Animals. Tumor was excised approximately one month after subcutaneous transplantation and passage in a nude mouse (BALB/cAJcl-nu/nu, CLEA Japan, Inc.), and prepared into a fragment of approximately 2 mm square. A transplantation needle was packed with one fragment and subcutaneously inserted from around the right most distal rib of a nude mouse. After entrance to the right back, the inner cylinder was pushed to eject and transplant the tumor. Electronic calipers were used in tumor size measurement, and the major axis and the minor axis of the tumor of each mouse were measured by sandwiching the tumor between the measuring surfaces of the electronic calipers (Days 0, 4, 8, 11 and 15). A tumor volume (TV) was calculated from the major axis and the minor axis. A relative tumor volume (RTV) and a rate of change in relative tumor volume (T/C) were calculated from the calculated tumor volume. TV, RTV, and T/C were calculated according to the following expressions. Tumor volume TV (mm^3)=(Major axis, mm)×(Minor axis, mm)×(Minor axis, mm)/2 Relative tumor volume RTV=(TV on the day of measurement)/(TV on the day of grouping) Rate of change in relative tumor volume T/C (%)=(Average RTV of an administration group)/(Average RTV of a control group)×100
An electronic balance for animals was used in body weight measurement. A rate of change in body weight on day n (BWCn) was calculated from the body weight on day n (BWn) according to the following expression. Rate of change in body weight BWCn (%)=(BWn−BW0)/BW0×100
Nude mice whose TV reached 100 to 300 mm^3 were selected, and six animals were assigned to each group by the equal number method (MiSTAT (ver. 2.0)) such that average TV was equalized among groups.
The presence or absence of an effect of combined use and toxicity were determined from tumor sizes and body weights on the day of grouping (Day 0) and the day of evaluation (Day 15). During the administration period, the body weights were measured every day for the calculation of the amount of a dosing solution.

[3] = Compound 1 15 mg/kg/day p.o. Days 1-14
[4] = Compound 1 30 mg/kg/day p.o. Days 1-14
[5] = Compound 1 7.5 mg/kg/day p.o. Days 1-14

C=CC(=O)N1CCC[C@@H](n2nc(C(=O)Nc3ccc(CC(=O)N(C)C)c(C)c3C)c3c(N)ncnc32)C1 [Compound 1, (R)-1-(1-acryloylpiperidin-3-yl)-4-amino-N-(4-(2-(dimethylamino)-2-oxoethyl)-2,3-dimethylphenyl)-1H-pyrazolo[3,4-d]pyrimidine-3-carboxamide]
BWC (%) Day 15 Mean [1, 3]: 8.35% | RTV Day 15 Mean ± SD [1, 3]: 1.69 ± 0.39 | T/C (%) [1, 3]: 40.8% | BWC (%) Day 15 Mean [1, 4]: 6.43% | RTV Day 15 Mean ± SD [1, 4]: 0.67 ± 0.15 | T/C (%) [1, 4]: 16.3% | RTV Day 15 Mean + SD [2, 5]: 6.55 ± 0.37 | T/C (%) [2, 5]: 49.0% | RTV Day 15 Mean + SD [2, 3]: 3.77 ± 0.32 | T/C (%) [2, 3]: 28.2% | BWC (%) Day 15 Mean ([2]; 7.5 mg/kg/day): 5.06% | BWC (%) Day 15 Mean ([2]; 15 mg/kg/day): 0.82%
